± gives the expanded uncertainty stated by the source.

The nature of series [1]: relative permittivity at zero frequency (dimensionless). Conditions: 101.33 kPa, Liquid, Parallel plate capacitor.
The conditions of series [2]: 101.33 kPa, Liquid, Pycnometric method.
Series [3] can be described thus: refractive index (Na D-line) (dimensionless). Conditions: 101.33 kPa, Liquid, Standard Abbe refractometry.

In the case of `COCCOCCOCCOCCOC` [2,5,8,11,14-pentaoxapentadecane], the “relative permittivity at zero frequency” value is 7.939 ± 0.48 in series [1] (293.15 K), 7.816 ± 0.47 in series [1] (298.15 K) and 7.692 ± 0.46 in series [1] (303.15 K). In addition, the mass density (as a rule, the mass of a sample divided by its volume) in series [2] (293.15 K) is 1011.06 ± 1.4 kg/m3; in series [2] (298.15 K) it was 1007.07 ± 1.4 kg/m3; in series [2] (303.15 K), 1002.49 ± 1.4 kg/m3. Besides, the refractive index (in general, the speed of light in vacuum divided by its phase velocity in the sample) in series [3] (293.15 K) came out at 1.4326 ± 0.0009; in series [3] (298.15 K), 1.4306 ± 0.0009; in series [3] (303.15 K), 1.4286 ± 0.0009.

For the molecule `CCCCCCCC` [octane], the “relative permittivity at zero frequency” value in series [1] (293.15 K) was found to be 1.968 ± 0.12; in series [1] (298.15 K), 1.961 ± 0.12; in series [1] (303.15 K), 1.954 ± 0.12. In addition, the refractive index in series [3] (293.15 K) came to 1.3976 ± 0.0008; in series [3] (298.15 K) it was 1.3952 ± 0.0008; in series [3] (303.15 K), 1.3929 ± 0.0008.

Regarding `CCCCCO` [pentan-1-ol], the results for the “relative permittivity at zero frequency” value in series [1] (293.15 K), in series [1] (298.15 K) and in series [1] (303.15 K) were 15.739 ± 0.94, 15.158 ± 0.91 and 14.579 ± 0.88, respectively. For the same molecule, the refractive index in series [3] (293.15 K) turned out to be 1.41 ± 0.0008; in series [3] (298.15 K), 1.4082 ± 0.0008; in series [3] (303.15 K), 1.4061 ± 0.0008.

Source of the values: the NIST ThermoML archive (doi:10.1016/j.tca.2012.10.024).
